Common to all, as to test: NCI anticancer screen, dose series, 48 h
For assay [1], the system named is ACHN renal.
Assay [2] relates to HCT-116 colon.
The subject of assay [3] is HOP-62 NSCLC.
The test system of assay [4] is KM12 colon.
Assay [5] has as its system M14 melanoma.
Assay [6] relates to NCI-H23 lung.
The test system of assay [7] is NCI/ADR-RES ovarian.
In assay [8] the test system is RXF 393 renal.
Assay [9] concerns SF-539 CNS.
The test system of assay [10] is SK-OV-3 ovarian.

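How tested: cells in 96-well plates exposed to compound for 48 hours at five concentrations. GI50 marks 50% less growth. TGI marks complete inhibition of growth.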

As for `CN[C@@H](C)C(=O)N[C@H]1CN(C(=O)CC(C)C)CC[C@H]2CC[C@@H](C(=O)NC(c3ccccc3)c3ccccc3)N2C1=O`, the GI50 in assay [1] is > 100 µM; in [2], > 100 µM; in assay [3] it was > 90.9 µM; in [4], > 100 µM; in assay [5] it was > 100 µM; in assay [6], 27.6 µM. In addition, the GI50 in [7] is > 100 µM; in [8], 7.38 µM; in [9] it was 1.78 µM; in [10], 0.156 µM. Moreover, the TGI in assay [1], in [2], in assay [3], in assay [4], in assay [5] and in [6] was > 100 µM in each case. The TGI was > 100 µM in assay [7], > 100 µM in assay [8], > 100 µM in [9] and 1.04 µM in assay [10].
Turning to `CCN(CC)CCCC(C)Nc1cc(-c2ccc(C(F)(F)F)cc2)c(C#N)c2nc3ccccc3n12` (stereo not drawn), the GI50 was 1.38 µM in [1]; 0.687 µM in assay [2]; 2.2 µM in assay [3]; 3.29 µM in assay [4]; 1.81 µM in assay [5]; 1.86 µM in assay [6]. Moreover, the GI50 was 1.98 µM in assay [7], 1.4 µM in [8] and 2.22 µM in assay [10]. The TGI in [1] turned out to be 2.87 µM; in [2] it was 2.06 µM; in assay [3], 7.18 µM; in assay [4], 12.6 µM; in assay [5] it was 3.37 µM; in [6], 4.22 µM. In addition, the TGI in assay [7] was 4.44 µM; in assay [8], 2.96 µM; in assay [10], 4.75 µM.
For the compound `COc1cc(-c2nc(NC(C)=O)sc2-c2ccnc(NCCNS(=O)(=O)c3ccccc3)n2)ccc1Cl`, the GI50 was 3.1 µM in assay [1]; 3.17 µM in assay [2]; 6.78 µM in [3]; 3.26 µM in assay [4]; 2.09 µM in assay [5]; 5 µM in [6]. Moreover, the GI50 in assay [7] is > 100 µM; in [8] it was 2.74 µM; in assay [9], 2.86 µM; in assay [10] it was 4.77 µM. For the same compound, the TGI was > 100 µM in [1]; 35.7 µM in assay [2]; > 100 µM in assay [3]; 59.3 µM in assay [4]; 5.42 µM in assay [5]; > 100 µM in [6]. In addition, the TGI in assay [7] is > 100 µM; in assay [8] it was 7.53 µM; in [9] it was 8.48 µM; in assay [10], > 100 µM.
As to `COC(=O)[C@H]1[C@@H](O)[C@@]2(O)c3c(OC)cc(O[C@@H]4O[C@@H]([C@H](O)CO)CO[C@H]4OC)cc3O[C@@]2(c2ccc(OC)cc2)[C@@H]1c1ccccc1`, the GI50 in assay [1] is 0.0597 µM; in assay [2], 0.00371 µM; in [3], 0.00319 µM; in [4], 0.00329 µM; in assay [5], 0.00818 µM; in [6], 0.00441 µM. In addition, the GI50 in [8] was 0.00944 µM; in assay [9] it was 0.00187 µM; in assay [10] it was 0.00296 µM. In addition, the TGI is 0.783 µM in assay [1]; 0.0181 µM in assay [3]; 0.0333 µM in assay [4]; 0.0271 µM in [5]; 0.0422 µM in assay [6]; > 1 µM in assay [7]. The TGI was 0.0436 µM in assay [8], 0.00686 µM in assay [9] and 0.0325 µM in assay [10].
As for `C[C@@H](N)C1CCC(C(=O)Nc2ccncc2)CC1` (stereo partly drawn), the GI50 in assay [1], in assay [2], in assay [3], in [4], in assay [5] and in assay [6] was > 100 µM each time. The GI50 in assay [7], in [8], in [9] and in assay [10] was > 100 µM throughout. Also, the TGI in [1], in assay [2], in [3], in [4], in [5] and in assay [6] was > 100 µM in each case. Besides, the TGI in [7], in [8], in assay [9] and in assay [10] was > 100 µM in each case.
Consider `COc1ccccc1-c1cc(/C=C2\C(=O)Nc3ncc(Br)cc32)cc(Br)c1O`, for which the GI50 in [1] was 11.7 µM; in assay [2] it was 10.2 µM; in assay [3], 22.7 µM; in assay [4], 4.43 µM; in assay [5], 12.9 µM; in assay [6] it was 10.5 µM. Also, the GI50 in assay [7] was 14.5 µM; in [8] it was 6.77 µM; in [9] it was > 19.3 µM; in assay [10], > 21.3 µM. In addition, the TGI in [1], in assay [2], in assay [3], in assay [4], in [5] and in [6] was > 25 µM throughout. Further, the TGI in [7], in [8], in [9] and in assay [10] was > 25 µM throughout.
`O=Nc1ccc(O)c2ccccc12`: the GI50 is 1.69 µM in assay [1]; 1.17 µM in assay [2]; 2.17 µM in assay [4]; 1.83 µM in assay [5]; 1.45 µM in [6]; 1.11 µM in assay [7]. The GI50 in [8] was 2.86 µM; in assay [9], 2.11 µM; in [10] it was 4.93 µM. The TGI in assay [1] was 3.14 µM; in assay [2], 2.46 µM; in assay [4] it was 6.02 µM; in [5] it was 3.41 µM; in [6], 4.17 µM; in assay [7] it was 6.61 µM. In addition, the TGI in [8] was found to be 8.24 µM; in [9], 4.05 µM; in [10] it was 16.3 µM.
As for `Cc1ccc2c(c1)C(C)Cc1c(ncnc1-n1cnc3cc(C)ccc31)N2C` (stereo not drawn), the GI50 in assay [1] is 0.0459 µM; in [2] it was 0.0316 µM; in [3], 0.0352 µM; in assay [4], 0.0368 µM; in assay [6], 0.0567 µM; in assay [7], 0.0374 µM. For the same compound, the GI50 in assay [8] was 0.0289 µM; in assay [9] it was 0.0218 µM; in [10], 0.0295 µM. The TGI in [1] turned out to be 12 µM; in [2] it was 5.21 µM; in assay [3] it was 15.6 µM; in assay [4], 12.2 µM; in assay [6], 21.5 µM; in assay [7], 54.3 µM. Moreover, the values for the TGI in assay [8], in assay [9] and in assay [10] were 8.74 µM, 0.0593 µM and 1.09 µM, respectively.
Consider `COc1c2c3ccccc3nc-2n(C)c2ccccc12`, for which the GI50 is 3.33 µM in [1]; 4.18 µM in [2]; 8.61 µM in [3]; 8.63 µM in [4]; 11.7 µM in [6]; 7.33 µM in [7]. Further, the GI50 in assay [8] was 21.3 µM; in assay [9] it was 8.83 µM. Besides, the TGI in assay [1] is 19.4 µM; in assay [2], 81.7 µM; in assay [3], 33.6 µM; in [4], > 100 µM; in assay [6], 33.6 µM; in assay [7], 34.8 µM. The TGI was 78.1 µM in assay [8] and 25.9 µM in assay [9].
As to `O=c1[nH]cc(/C=N\Nc2ccccc2)c(=O)[nH]1`, the TGI in assay [1], in assay [2], in assay [4], in [5], in assay [6] and in assay [7] was > 100 µM throughout. Further, the TGI in [8], in [9] and in [10] was > 100 µM each time.
Take `NC(=NCCCC1(c2ccccc2)CCCC1)Nc1ccc(Cl)cc1`: the GI50 in [2] was 1.44 µM; in [3], 1.69 µM; in assay [5] it was 1.59 µM; in assay [6], 1.69 µM; in [7], 1.77 µM; in assay [8], 1.47 µM. The GI50 was 1.75 µM in assay [9] and 2.43 µM in assay [10]. The TGI in assay [2] came to 2.86 µM; in [3], 3.36 µM; in assay [5], 3.27 µM; in assay [6], 3.35 µM; in [7] it was 3.34 µM; in assay [8], 2.88 µM. Moreover, the TGI is 3.23 µM in assay [9] and 5.59 µM in assay [10].
As to `COc1c2ccoc2cc2oc(=O)ccc12`, the TGI in assay [1], in assay [2], in assay [3], in assay [5], in assay [6] and in [7] was > 100 µM throughout. The TGI in [8] and in [9] was > 100 µM in each case.
For the compound `Fc1ccc(-c2nn3c(CNc4ccccc4)nnc3s2)cc1`, the GI50 in assay [1] is 66.8 µM; in assay [2] it was 26.5 µM; in assay [3], 33.8 µM; in assay [4], 14.9 µM; in assay [5], 35.5 µM; in assay [6] it was 27.2 µM. For the same compound, the GI50 in assay [7] was 13.6 µM; in [8], > 100 µM; in assay [9], 33.6 µM. In addition, the TGI in assay [1], in assay [2], in assay [3], in assay [4], in [5] and in assay [6] was > 100 µM throughout. Also, the results for the TGI in [7], in assay [8] and in [9] were 53.6 µM, > 100 µM and > 100 µM, respectively.
Turning to `Cc1nc2ccccn2c1NC(=O)NNC(=S)Nc1ccc(Br)cc1`, the GI50 in [1] is 37.9 µM; in assay [2], 22.9 µM; in assay [3], 35.2 µM; in assay [4], 35.4 µM; in assay [5], 24.5 µM; in assay [7], 24.5 µM. Besides, the values for the GI50 in [8], in assay [9] and in assay [10] were 52.6 µM, 22.4 µM and 33 µM, respectively. Besides, the TGI in assay [1] was > 100 µM; in assay [2], 62.9 µM; in assay [3] it was > 100 µM; in assay [4], > 100 µM; in [5] it was 67.9 µM; in assay [7], 58 µM. Further, the values for the TGI in [8], in assay [9] and in [10] were > 100 µM, 55.2 µM and 82.8 µM, respectively.
In the case of `O=C1/C=C/[C@@H](O)[C@@H]2C[C@@H](O)C[C@H]2/C=C/CCC[C@H](CCc2ccc(C(F)(F)F)cc2)O1`, the GI50 is 0.41 µM in [1]; 0.251 µM in assay [2]; 0.328 µM in [3]; 0.247 µM in assay [5]; 0.236 µM in [6]; 0.191 µM in assay [7]. Moreover, the GI50 was 0.126 µM in assay [8], 0.522 µM in assay [9] and 0.279 µM in assay [10]. Also, the TGI in assay [1] is > 100 µM; in assay [2], 0.607 µM; in assay [3], 11 µM; in [5], 11.9 µM; in assay [6] it was 1.57 µM; in [7] it was 9.58 µM. The TGI in assay [8] was 0.669 µM; in assay [9], > 100 µM; in [10], 30.2 µM.
For the compound `NCCCCCCCCn1c2c(c3ccccc3c1=O)C(=O)c1ccccc1-2`, the GI50 in [1] was 4.07 µM; in assay [3], 2.13 µM; in [4], 2.12 µM; in [5] it was 3.4 µM; in assay [6] it was 4.57 µM; in assay [7] it was 4.29 µM. The GI50 in assay [8] is 4.58 µM; in [9], 2.84 µM; in assay [10], 16.6 µM. Besides, the TGI is 14 µM in assay [1]; 4.69 µM in assay [3]; 4.59 µM in assay [4]; 10.4 µM in assay [5]; 21.6 µM in assay [6]; 85.1 µM in [7]. Moreover, the figures for the TGI in assay [8], in assay [9] and in [10] were > 100 µM, 8.62 µM and 39.4 µM, respectively.

The values above are taken from PubChem BioAssay (NCI).
